This is an account of results in PMC7531004, “Discovery of gramicidin A analogues with altered activities by multidimensional screening of a one-bead-one-compound library” (Nature Communications, 2020).

One may read the viability as a per cent measure of how many cells are alive, often set against a control.

Each structure is given as a SMILES string. Where a SMILES comes first, the peptide text is derived from it. [ ]: non-standard residue; d: D form. The star is where a group is joined. NHCH2CH2OH = OCCN*; For = O=C*

For data set [1], the system named is Streptococcus pyogenes SSI-9. Put plainly: Antibacterial activity assay of bead-derived peptides (three concentrations). Details: key: +++: inhibition by the 640-fold diluted peptide solution; ++: inhibition by the 160-fold diluted solution; +: inhibition by the 40-fold diluted solution; -: no inhibition. Type of data set: cell-based. Particulars: S. pyogenes, bead-derived peptide solution, three concentrations. The essentials: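 Growth inhibition scored visually as precipitated bacteria after 37 °C, 18 h incubation. Streptococcus pyogenes SSI-9 inoculum of 2 × 10^5 CFU in Ca2+/Mg2+-adjusted Mueller Hinton broth plus 5% laked horse blood; peptides tested at three levels: stock, 4-fold and 16-fold DMSO dilutions.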

For data set [2] the following is noted: cell viability/%. In short, it runs like this: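 Peptide stocks diluted 250× in growth medium; P388 cells 1 × 10^4 cells/mL final; 37 °C, 5% CO2, 92 h. WST-1 + 1-methoxy PMS, 4 h, A415. Output: % viability.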
Data set [3] can be described thus: H+/Na+ transport assay of bead-derived peptides (one-point).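 Also: relative to parent gramicidin A activity set to 1.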 It is filed as biochemical. Details: key: relative activity; mean of two control wells = 1.00. Particulars: bead-derived peptide solution, EYPC/EYPG LUVs. The essentials:
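Values are normalized fluorescence, with Triton X-100 defining 100% and untreated LUVs 0%, and the two control wells averaging 1.00. Vesicles carried 1.0 mM pyranine and included egg yolk phosphatidylglycerol. Peptides were incubated with them 30 min at room temperature.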

On to `CC(C)C[C@@H](NC(=O)[C@H](C)NC(=O)CNC(=O)[C@@H](NC=O)C(C)C)C(=O)N[C@@H](C)C(=O)N[C@@H](C(=O)N[C@H](C(=O)N[C@@H](C(=O)N[C@@H](Cc1c[nH]c2ccccc12)C(=O)N[C@@H](C(=O)N[C@@H](Cc1c[nH]c2ccccc12)C(=O)N[C@@H](C(=O)N[C@@H](Cc1c[nH]c2ccccc12)C(=O)N[C@@H](C(=O)N[C@@H](Cc1c[nH]c2ccccc12)C(=O)NCCO)C(C)C)C(C)C)C(C)C)C(C)C)C(C)C)C(C)C` [compound 725] (For-VGA[dL]A[dV]V[dV]W[dV]W[dV]W[dV]W-NHCH2CH2OH), for which the antibacterial activity result in data set [1] was “+”. The viability in data set [2] amounted to 100%. In addition, in data set [3], the “H+/Na+ transport activity normalized against the value of 1 (1.00)” value (shortened to “H+/Na+ transport activity normalized”) is recorded as 1.10.
`CC(C)C[C@@H](NC(=O)[C@H](Cc1c[nH]c2ccccc12)NC(=O)[C@H](NC(=O)[C@H](Cc1c[nH]c2ccccc12)NC(=O)[C@@H](CC(C)C)NC(=O)[C@H](Cc1c[nH]c2ccccc12)NC(=O)[C@H](NC(=O)[C@@H](NC(=O)[C@H](NC(=O)[C@H](C)NC(=O)[C@H](NC(=O)[C@H](C)NC(=O)CNC(=O)[C@@H](NC=O)C(C)C)C(C)C)C(C)C)C(C)C)C(C)C)[C@H](C)O)C(=O)N[C@@H](Cc1c[nH]c2ccccc12)C(=O)NCCO` [compound 521] (For-VGA[dV]A[dV]V[dV]W[dL]W[dT]W[dL]W-NHCH2CH2OH): the antibacterial activity result in data set [1] is “+”. The same compound displayed a viability in data set [2] of 100%. The “H+/Na+ transport activity normalized” value in data set [3] was determined as 1.05.
In the case of `CC(C)C[C@@H](NC(=O)[C@H](C)NC(=O)[C@H](NC(=O)[C@H](C)NC(=O)CNC(=O)[C@@H](NC=O)C(C)C)C(C)C)C(=O)N[C@H](C(=O)N[C@@H](C(=O)N[C@@H](Cc1c[nH]c2ccccc12)C(=O)N[C@H](CC(C)C)C(=O)N[C@@H](Cc1c[nH]c2ccccc12)C(=O)N[C@@H](C(=O)N[C@@H](Cc1c[nH]c2ccccc12)C(=O)N[C@@H](C(=O)N[C@@H](Cc1c[nH]c2ccccc12)C(=O)NCCO)[C@H](C)O)[C@H](C)O)C(C)C)C(C)C` [compound 13040] (For-VGA[dV]A[dL]V[dV]W[dL]W[dT]W[dT]W-NHCH2CH2OH), the antibacterial activity entry in data set [1] is listed as “-”. Also, in data set [2], the viability worked out at 100%. In addition, the “H+/Na+ transport activity normalized” value in data set [3] came to 1.01.
In the case of `CC(C)C[C@@H](NC(=O)[C@H](C)NC(=O)CNC(=O)[C@@H](NC=O)C(C)C)C(=O)N[C@@H](C)C(=O)N[C@@H](C(=O)N[C@H](C(=O)N[C@@H](C(=O)N[C@@H](Cc1c[nH]c2ccccc12)C(=O)N[C@@H](C(=O)N[C@@H](Cc1c[nH]c2ccccc12)C(=O)N[C@H](CC(C)C)C(=O)N[C@@H](Cc1c[nH]c2ccccc12)C(=O)N[C@@H](C(=O)N[C@@H](Cc1c[nH]c2ccccc12)C(=O)NCCO)C(C)C)[C@H](C)O)C(C)C)C(C)C)C(C)C` [compound 5657] (For-VGA[dL]A[dV]V[dV]W[dT]W[dL]W[dV]W-NHCH2CH2OH), the antibacterial activity entry in data set [1] was “-”. This compound also showed a viability in data set [2] of 81.3%. Also, the “H+/Na+ transport activity normalized” value in data set [3] turned out to be 1.09.
For `CC(C)C[C@@H](NC(=O)[C@H](Cc1c[nH]c2ccccc12)NC(=O)[C@H](NC(=O)[C@H](Cc1c[nH]c2ccccc12)NC(=O)[C@@H](CC(C)C)NC(=O)[C@@H](NC(=O)[C@H](NC(=O)[C@H](C)NC(=O)[C@H](NC(=O)[C@H](C)NC(=O)CNC(=O)[C@@H](NC=O)C(C)C)C(C)C)C(C)C)C(C)C)C(C)C)C(=O)N[C@@H](Cc1c[nH]c2ccccc12)C(=O)N[C@@H](C(=O)N[C@@H](Cc1c[nH]c2ccccc12)C(=O)NCCO)[C@H](C)O` [compound 8580] (For-VGA[dV]A[dV]V[dL]W[dV]W[dL]W[dT]W-NHCH2CH2OH), in that order: “+”, 60.6% and 1.01.
As for `CC(C)C[C@@H](NC(=O)[C@H](Cc1c[nH]c2ccccc12)NC(=O)[C@H](NC(=O)[C@H](Cc1c[nH]c2ccccc12)NC(=O)[C@@H](CC(C)C)NC(=O)[C@H](Cc1c[nH]c2ccccc12)NC(=O)[C@H](NC(=O)[C@@H](NC(=O)[C@H](NC(=O)[C@H](C)NC(=O)[C@H](NC(=O)[C@H](C)NC(=O)CNC(=O)[C@@H](NC=O)C(C)C)C(C)C)C(C)C)C(C)C)[C@H](C)O)C(C)C)C(=O)N[C@@H](Cc1c[nH]c2ccccc12)C(=O)NCCO` [compound 2829] (For-VGA[dV]A[dV]V[dT]W[dL]W[dV]W[dL]W-NHCH2CH2OH), the antibacterial activity result in data set [1] was “-”. The compound also returned a viability in data set [2] of 100%. In addition, the “H+/Na+ transport activity normalized” value in data set [3] is on record as 1.13.
In the case of `CC(C)C[C@@H](NC(=O)[C@H](C)NC(=O)CNC(=O)[C@@H](NC=O)C(C)C)C(=O)N[C@@H](C)C(=O)N[C@H](CC(C)C)C(=O)N[C@H](C(=O)N[C@H](CC(C)C)C(=O)N[C@@H](Cc1c[nH]c2ccccc12)C(=O)N[C@@H](C(=O)N[C@@H](Cc1c[nH]c2ccccc12)C(=O)N[C@@H](C(=O)N[C@@H](Cc1c[nH]c2ccccc12)C(=O)N[C@H](CC(C)C)C(=O)N[C@@H](Cc1c[nH]c2ccccc12)C(=O)NCCO)C(C)C)[C@H](C)O)C(C)C` [compound 196] (For-VGA[dL]A[dL]V[dL]W[dT]W[dV]W[dL]W-NHCH2CH2OH), the antibacterial activity result in data set [1] is listed as “-”. In data set [2], this compound came in with a viability of 100%. For the same compound, the “H+/Na+ transport activity normalized” value in data set [3] turned out to be 1.06.
On to `CC(C)C[C@@H](NC(=O)[C@H](C)NC(=O)CNC(=O)[C@@H](NC=O)C(C)C)C(=O)N[C@@H](C)C(=O)N[C@@H](C(=O)N[C@H](C(=O)N[C@@H](C(=O)N[C@@H](Cc1c[nH]c2ccccc12)C(=O)N[C@H](CC(C)C)C(=O)N[C@@H](Cc1c[nH]c2ccccc12)C(=O)N[C@@H](C(=O)N[C@@H](Cc1c[nH]c2ccccc12)C(=O)N[C@@H](C(=O)N[C@@H](Cc1c[nH]c2ccccc12)C(=O)NCCO)C(C)C)C(C)C)C(C)C)C(C)C)C(C)C` [compound 5587] (For-VGA[dL]A[dV]V[dV]W[dL]W[dV]W[dV]W-NHCH2CH2OH), for which, in data set [1], the antibacterial activity entry was “++”. In data set [2], this compound showed a viability of 85.3%. Also, in data set [3], the “H+/Na+ transport activity normalized” value was 1.23.
The corresponding values for `CNC(=O)C[C@@H](NC(=O)[C@H](Cc1c[nH]c2ccccc12)NC(=O)[C@H](NC(=O)[C@H](Cc1c[nH]c2ccccc12)NC(=O)[C@H](NC(=O)[C@H](Cc1c[nH]c2ccccc12)NC(=O)[C@@H](CC(C)C)NC(=O)[C@@H](NC(=O)[C@@H](CC(C)C)NC(=O)[C@H](C)NC(=O)[C@@H](CC(C)C)NC(=O)[C@H](C)NC(=O)CNC(=O)[C@@H](NC=O)C(C)C)C(C)C)C(C)C)C(C)C)C(=O)N[C@@H](Cc1c[nH]c2ccccc12)C(=O)NCCO` [compound 6265] (For-VGA[dL]A[dL]V[dL]W[dV]W[dV]W[dD](NHMe)W-NHCH2CH2OH) are “-”, 79.9% and 1.03.
Consider `CNC(=O)C[C@@H](NC(=O)[C@H](Cc1c[nH]c2ccccc12)NC(=O)[C@@H](CC(C)C)NC(=O)[C@H](Cc1c[nH]c2ccccc12)NC(=O)[C@@H](CC(C)C)NC(=O)[C@H](Cc1c[nH]c2ccccc12)NC(=O)[C@@H](CC(C)C)NC(=O)[C@@H](NC(=O)[C@@H](CC(C)C)NC(=O)[C@H](C)NC(=O)[C@@H](CC(C)C)NC(=O)[C@H](C)NC(=O)CNC(=O)[C@@H](NC=O)C(C)C)C(C)C)C(=O)N[C@@H](Cc1c[nH]c2ccccc12)C(=O)NCCO` [compound 300] (For-VGA[dL]A[dL]V[dL]W[dL]W[dL]W[dD](NHMe)W-NHCH2CH2OH), for which, in data set [1], the antibacterial activity entry is reported as “-”. Moreover, the viability in data set [2] turned out to be 100%. The “H+/Na+ transport activity normalized” value in data set [3] was found to be 1.00.
For the compound `CC(C)C[C@@H](NC(=O)[C@H](C)NC(=O)CNC(=O)[C@@H](NC=O)C(C)C)C(=O)N[C@@H](C)C(=O)N[C@@H](C(=O)N[C@H](C(=O)N[C@H](CC(C)C)C(=O)N[C@@H](Cc1c[nH]c2ccccc12)C(=O)N[C@H](CC(C)C)C(=O)N[C@@H](Cc1c[nH]c2ccccc12)C(=O)N[C@@H](C(=O)N[C@@H](Cc1c[nH]c2ccccc12)C(=O)N[C@@H](C(=O)N[C@@H](Cc1c[nH]c2ccccc12)C(=O)NCCO)C(C)C)C(C)C)C(C)C)[C@H](C)O` [compound 1898] (For-VGA[dL]A[dT]V[dL]W[dL]W[dV]W[dV]W-NHCH2CH2OH), the antibacterial activity result in data set [1] is on record as “-”. The compound also had a viability in data set [2] of 100%. Moreover, in data set [3], the “H+/Na+ transport activity normalized” value is on record as 1.07.
In the case of `CC(C)C[C@@H](NC(=O)[C@H](C)NC(=O)[C@H](NC(=O)[C@H](C)NC(=O)CNC(=O)[C@@H](NC=O)C(C)C)C(C)C)C(=O)N[C@H](C(=O)N[C@H](CC(C)C)C(=O)N[C@@H](Cc1c[nH]c2ccccc12)C(=O)N[C@H](CC(C)C)C(=O)N[C@@H](Cc1c[nH]c2ccccc12)C(=O)N[C@@H](C(=O)N[C@@H](Cc1c[nH]c2ccccc12)C(=O)N[C@@H](C(=O)N[C@@H](Cc1c[nH]c2ccccc12)C(=O)NCCO)[C@H](C)O)[C@H](C)O)C(C)C` [compound 4322] (For-VGA[dV]A[dL]V[dL]W[dL]W[dT]W[dT]W-NHCH2CH2OH), in data set [1], the antibacterial activity entry is recorded as “-”. In data set [2], the viability amounted to 100%. Further, the “H+/Na+ transport activity normalized” value in data set [3] was found to be 1.05.
